Measurements reported in patent US9765061B2, “Trail enhancers for the selective killing of cancer cells” (The Scripps Research Institute, priority 2013, dated 2017).

How the values were obtained:
[1] = tested on: A549 cell line; test: Viability of A549 cells, XTT-based assay, with or without TRAIL; assay type: cell-based, human
Method: FIG. 4: C12 sensitizes long cancer cell line A549 to TRAIL. (A) Viability of cells was examined after 24-hour incubation in media containing TRAIL (50 ng/ml), compound (C12) (1 μM), compound (C12R) (25 μM) or the indicated combination of TRAIL (T) with (C12) or (C12R). The chemical structures of (C12) and its stereoisomer (C12R) are shown on the right. (B) Viability of cells was examined after 24-hour incubation in media, containing TRAIL (50 ng/ml) and the indicated doses of C12. Viable cells remaining after the treatment were determined as a function of mitochondrial activity of living cells according to XTT-based toxicology assay kit (Sigma) and are shown as a percentage of viable untreated cells.
To test this hypothesis, we examined the effect of C12 in vitro on the activity of TRAIL against A549 cell line derived from a cancer sample of the human lung.
(§1) Cytotoxicity was determined by using the XTT-based toxicology assay kit (Sigma, St. Louis, Miss.) in accordance with the manufacturer's instructions. For some experiments, to confirm the apoptotic nature of toxicity, cells were analyzed using protocols and instructions of the Annexin V-FITC apoptosis detection kit (Biovision, Mountain View, Calif.). In addition, caspase 3, 8 and 9 activities were determined by colorimetric assays (R&D System), and the data are expressed as fold increases compared to the values of untreated or control-treated cells (n=5).

[2] = tested on: cancer and normal cells; test: XTT-based viability of cancer and normal cells grown 18 h (FIG. 12); assay type: cell-based; conditions: TRAIL alone or the same doses of C12 without TRAIL
Method: FIG. 12. (C12) promotes the TRAIL-mediated killing of cancer cells, a), c) Western blot analysis of PARP cleavage in cancer or normal cells treated for 3 h with TRAIL, (C12) or a combination of both, as indicated, b), d) XTT-based assay monitoring the viability of cancer and normal cells grown for 18 h in media containing TRAIL and the indicated doses of (C12). Cell survival was ˜100% in control samples (untreated cells) as well as in samples incubated with TRAIL alone or the same doses of (C12) without TRAIL.
(§2) Cancer and normal cell culture. Lung cancer cell line A549 and colon cancer cell line HT29 were purchased from ATCC. Breast cancer cell line MDA-MB-468 was received from J. C. Reed (The Burnham Institute, La Jolla, Calif.). […]
as §1

[3] = tested on: bone marrow-derived macrophages (BMDM); test: Responses of bone marrow-derived macrophages to AHLs (toxicity, Western blot); assay type: cell-based, mouse
Method: FIG. 13. AHL-mediated inhibition of inflammation-induced NF-κB signaling is sufficient for rendering tumors susceptible to TRAIL-induced apoptosis. a) Western blot analysis of PARP cleavage in cancer cells stimulated for 3 h with TRAIL or its combination with different AHLs as indicated, b) Western blot analysis of PARP cleavage as well as phosphorylated forms of eIF2α and p38 in extracts from bone marrow-derived macrophages (BMDM) stimulated with (C12) or (3-N2), i.e., (S)-(3-N2), as indicated, c) Western blot analysis of PARP cleavage and temporal profiles of IκBα expression in BMDM extracts prepared after treatment with LPS or its combination with (C12) or (3-N2). d) Inhibitory effect of (C12) and its derivatives on LPS-induced TNF production in BMDM. e) Lung cancer cells were exposed to (3-N2) (10 μM), TRAIL (0.5 ng/ml), TNF (20 ng/ml) or their combinations as indicated. After 2 h, cell lysates were prepared and analyzed by Western blot for PARP cleavage, IκBα and actin.
Mice, bone marrow-derived macrophages and other cell culture, C57BL/6 mice were purchased from the Jackson Laboratory (Bar Harbor, Me.). Bone marrow-derived macrophages (BMDM) and murine embryonic fibroblasts (MEF) were prepared by using standard protocols that were approved by the TSRI Animal Care and Use Committee. L929/NCTC clone 929 (connective tissue, mouse) cell lines were purchased from ATCC (Manassas, Va.). MEFs and L929 cell line were maintained in GM (see above). BMDM were cultured in 70% GM and 30% L929 conditioned medium. In general, cells (˜60-70% confluence) were incubated in fresh medium for 12-14 h before stimulation.
Antibodies and Western blot analysis. Anti-eIF2α, phospho-eIF2α[…](p-eIF2α), p38, p-p38 (Thr180/Tyr132), p-RelA (Ser536), p-I κB ? 32/36), PARP 20 antibodies were purchased from Cell Signaling; anti-RelA, I κB α, IκBβ were from Santa Cruz Biotechnology. Cellular extracts were prepared and analyzed by Western blot assay as previously described.^E3
Cell stimulation. In all experiments, BMDM were stimulated with LPS (100 ng/ml), AHL (10-25 μM; usually BMDM and primary macrophages were stimulated by 25 μM of C12) or their combination as indicated in the figure legends. If not indicated, cancer and normal cells were stimulated with 40 ng/ml of TNFα, 20 ng/ml TRAIL and 10 μM (in case of cancer cells) or 25 μM (in case of normal cells) of AHL.

[4] = tested on: normal human bronchial epithelial cells (NHBE); test: PARP cleavage in normal human bronchial epithelial cells; assay type: cell-based; conditions: FIG. 3D
Method: FIG. 3: Sensitivity of cancerous and non-cancerous cells to apoptosis induced by TNF, C12 or a combination of C12 and TNF. Cells were incubated with TNF, (C12) or a combination of TNF and (C12) as indicated, and the cleavage of PARP (an apoptotic marker) was determined by Western blot. (A and B) Breast cancer MCF-7 cells transfected with control vector (Vector) and vector expressing Bcl-2 or CLARP. (C) HeLa cell line. (D) Normal human bronchial epithelial cells (NHBE).
Similar experiments were conducted by using normal human bronchial epithelial cells and HeLa cell line as an example of transformed cells. We observed that both HeLa and normal cells were resistant to pro-apoptotic effects of TNF (FIG. 3C and 3D). […] In addition, two stimuli—C12 and TNF—work synergistically against cancerous cells, although normal cells stay intact.
as §2
Antibodies and Western blot analysis. […] Cellular extracts were prepared and analyzed by Western blot assay as previously described.^E3

## CCCCCCCCCC(=O)CC(=O)N[C@H]1CCOC1=O [Compound 1, N-(3-oxo-dodecanoyl) homoserine lactone]
[1]; C12 1 μM or 25 μM, C12R 25 μM, no TRAIL
  cell growth and viability, compound alone: practically unchanged
[1]; FIG. 8A
  sensitivity of A549 cells to TRAIL in the presence of compound: comparable increase in sensitivity
[1]; Homo sapiens, A549, 100 nM of C12 and 50 ng/ml of TRAIL, 24-hours incubation, read-out: cells that lost their viability
  cytotoxicity at 0.1 µM: > 50%
[1]; combination of TRAIL (50 ng/ml) and C12 (1 μM)
  viability of A549 cells: dramatically reduced
[2]
  Cell survival: ~100%
[3]; Western blot, FIG. 13b
  eIF2α phosphorylation in macrophages: induced eIF2α phosphorylation in a similar fashion
[3]; macrophages activated by LPS, FIG. 13c
  blocking LPS-induced re-synthesis of IκBα: equally effective
[4]
  apoptosis (PARP cleavage), compound alone and in combination with TNF: showed resistance
